# In patent publication US8959984B2, “Proteome-wide quantification of small molecule binding to cellular target proteins” (priority 2007, dated 2015):
# Experiments:
# Assay in all cases: binding to AX14596 beads (HeLa lysate, SILAC MS)
# CDA = target: T1, CDA (Homo sapiens, UniProt P32320)
# T1 construct: endogenous in cells; host or cells: HeLa S3
# CaMK2g (CAMK2G) = CaMK2g (CAMK2G) (Homo sapiens, UniProt Q13555)
# ALK2 (ACVR1) = target: T2, ALK2 (ACVR1) (Homo sapiens, UniProt Q04771)
# T2 sequence (Q04771 21-509): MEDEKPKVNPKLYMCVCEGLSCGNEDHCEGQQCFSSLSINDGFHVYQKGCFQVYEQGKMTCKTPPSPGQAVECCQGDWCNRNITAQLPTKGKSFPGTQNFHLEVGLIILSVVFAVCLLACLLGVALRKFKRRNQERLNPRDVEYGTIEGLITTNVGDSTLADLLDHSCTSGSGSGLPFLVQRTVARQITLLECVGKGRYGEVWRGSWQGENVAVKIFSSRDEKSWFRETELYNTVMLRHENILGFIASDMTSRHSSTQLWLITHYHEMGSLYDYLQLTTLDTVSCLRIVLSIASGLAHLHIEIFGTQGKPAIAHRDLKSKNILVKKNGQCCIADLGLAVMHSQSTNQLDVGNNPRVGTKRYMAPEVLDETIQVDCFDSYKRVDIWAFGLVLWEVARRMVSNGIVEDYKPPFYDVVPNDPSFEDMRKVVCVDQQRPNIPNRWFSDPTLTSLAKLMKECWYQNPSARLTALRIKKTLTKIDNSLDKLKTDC
# SgK085 (MYLK3) = target: T3, SgK085 (MYLK3) (Homo sapiens, UniProt Q32MK0)
# T3 sequence (Q32MK0 1-819): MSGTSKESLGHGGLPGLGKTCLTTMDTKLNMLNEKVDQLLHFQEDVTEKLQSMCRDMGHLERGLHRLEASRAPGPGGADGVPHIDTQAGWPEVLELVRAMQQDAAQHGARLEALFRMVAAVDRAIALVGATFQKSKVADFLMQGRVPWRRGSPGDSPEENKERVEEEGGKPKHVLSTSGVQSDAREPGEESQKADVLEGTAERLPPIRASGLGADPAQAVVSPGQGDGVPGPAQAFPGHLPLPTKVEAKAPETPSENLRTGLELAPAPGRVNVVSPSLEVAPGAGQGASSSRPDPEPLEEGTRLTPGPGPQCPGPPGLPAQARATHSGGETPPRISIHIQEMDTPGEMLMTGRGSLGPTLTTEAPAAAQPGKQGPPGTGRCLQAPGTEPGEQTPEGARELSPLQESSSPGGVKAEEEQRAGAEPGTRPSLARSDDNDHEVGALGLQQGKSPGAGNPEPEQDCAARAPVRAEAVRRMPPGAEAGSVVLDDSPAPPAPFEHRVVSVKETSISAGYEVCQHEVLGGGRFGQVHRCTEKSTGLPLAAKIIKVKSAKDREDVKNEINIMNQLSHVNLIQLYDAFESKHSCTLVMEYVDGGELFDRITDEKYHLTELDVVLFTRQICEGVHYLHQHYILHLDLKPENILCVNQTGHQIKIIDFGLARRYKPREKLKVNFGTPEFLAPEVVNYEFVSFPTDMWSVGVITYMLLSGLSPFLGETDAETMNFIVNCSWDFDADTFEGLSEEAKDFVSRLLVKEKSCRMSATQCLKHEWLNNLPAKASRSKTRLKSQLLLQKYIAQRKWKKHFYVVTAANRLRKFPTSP
# LYN = LYN (Homo sapiens, UniProt P07948)
# LYN, sequence (P07948 whole entry): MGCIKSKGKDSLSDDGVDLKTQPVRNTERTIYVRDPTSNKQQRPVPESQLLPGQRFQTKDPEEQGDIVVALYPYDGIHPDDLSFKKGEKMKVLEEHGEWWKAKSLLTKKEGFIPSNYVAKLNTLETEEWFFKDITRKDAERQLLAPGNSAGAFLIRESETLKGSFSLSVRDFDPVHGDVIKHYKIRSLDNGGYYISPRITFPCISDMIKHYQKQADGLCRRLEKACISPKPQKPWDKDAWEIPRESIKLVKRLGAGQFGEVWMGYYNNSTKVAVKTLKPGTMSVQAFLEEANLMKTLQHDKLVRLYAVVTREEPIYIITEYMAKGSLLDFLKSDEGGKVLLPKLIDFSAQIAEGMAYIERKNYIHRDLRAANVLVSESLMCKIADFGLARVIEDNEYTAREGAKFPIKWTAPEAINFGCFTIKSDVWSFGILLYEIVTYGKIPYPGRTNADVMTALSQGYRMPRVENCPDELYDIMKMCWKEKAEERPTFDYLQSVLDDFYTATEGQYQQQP
# CaMK2g (CAMK2G), sequence (Q13555 whole entry): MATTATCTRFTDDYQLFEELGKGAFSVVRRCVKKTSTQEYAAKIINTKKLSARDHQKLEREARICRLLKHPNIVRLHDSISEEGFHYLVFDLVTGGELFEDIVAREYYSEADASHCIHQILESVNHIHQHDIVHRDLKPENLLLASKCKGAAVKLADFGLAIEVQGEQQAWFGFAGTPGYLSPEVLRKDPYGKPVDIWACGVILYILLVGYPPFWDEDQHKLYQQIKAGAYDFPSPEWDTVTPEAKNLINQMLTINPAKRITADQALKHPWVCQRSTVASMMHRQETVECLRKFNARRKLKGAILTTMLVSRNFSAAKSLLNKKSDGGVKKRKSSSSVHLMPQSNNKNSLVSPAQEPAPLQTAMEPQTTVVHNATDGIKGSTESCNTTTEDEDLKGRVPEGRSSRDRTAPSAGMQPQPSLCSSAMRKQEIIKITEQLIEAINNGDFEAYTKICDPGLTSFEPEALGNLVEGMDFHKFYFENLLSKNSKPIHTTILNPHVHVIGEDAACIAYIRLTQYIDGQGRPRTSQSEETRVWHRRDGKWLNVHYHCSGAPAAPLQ
# T1 sequence (P32320 whole entry): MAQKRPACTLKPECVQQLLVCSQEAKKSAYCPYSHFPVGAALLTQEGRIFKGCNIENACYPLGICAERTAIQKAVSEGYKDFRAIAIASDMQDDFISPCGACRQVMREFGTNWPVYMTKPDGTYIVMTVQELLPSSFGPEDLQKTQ
smiles,measurement,setting,value
COc1cc2ncnc(Nc3ccc(F)c(Cl)c3)c2cc1OCCCN [AX14596],Ki,CDA,402 µM
same,r (3 mg/1 mg lysate),CDA,3.09
same,rAVERAGE (2. inc/1. inc),CDA,0.80
same,rAVERAGE (control/1. inc),CDA,0.09
same,Ki,CaMK2g (CAMK2G),93.4 µM
same,r (3 mg/1 mg lysate),CaMK2g (CAMK2G),2.45
same,r (5 h/2.5 h inc. time),CaMK2g (CAMK2G),1.17
same,rAVERAGE (2. inc/1. inc),CaMK2g (CAMK2G),0.48
same,rAVERAGE (control/1. inc),CaMK2g (CAMK2G),0.04
same,Ki,ALK2 (ACVR1),202 µM
same,r (3 mg/1 mg lysate),ALK2 (ACVR1),2.57
same,r (5 h/2.5 h inc. time),ALK2 (ACVR1),1.17
same,rAVERAGE (2. inc/1. inc),ALK2 (ACVR1),0.67
same,rAVERAGE (control/1. inc),ALK2 (ACVR1),0.15
same,Ki,SgK085 (MYLK3),186 µM
same,r (3 mg/1 mg lysate),SgK085 (MYLK3),2.56
same,r (5 h/2.5 h inc. time),SgK085 (MYLK3),0.97
same,rAVERAGE (2. inc/1. inc),SgK085 (MYLK3),0.65
same,rAVERAGE (control/1. inc),SgK085 (MYLK3),0.00
same,Ki,LYN,195 µM
same,r (3 mg/1 mg lysate),LYN,2.14
same,r (5 h/2.5 h inc. time),LYN,0.98
same,rAVERAGE (2. inc/1. inc),LYN,0.66
same,rAVERAGE (control/1. inc),LYN,0.07
same,% BOUND,LYN; bound to AX14596 beads,34%
